The values below come from patent publication US20260250325A1, “Antiviral Polypeptide Membrane Fusion Inhibitor, and Preparation Method and Application Thereof” (priority 2025, published 2026).

A word on the Kd: it is the free concentration of one partner at which half of the binding sites on the other are occupied at equilibrium, for simple one-to-one binding. A lower Kd goes with tighter binding. The term IC50 denotes the concentration that inhibits the measured activity by half. The term CC50 denotes the concentration giving 50% cytotoxicity.

Where a SMILES comes first, the peptide text is derived from it. The star is where a group is joined. Succinyl(4-O-cholesteryl) = CC(C)CCC[C@@H](C)[C@H]1CC[C@H]2[C@@H]3CC=C4C[C@@H](OC(=O)CCC(=O)*)CC[C@]4(C)[C@H]3CC[C@]12C Some results are limits rather than exact numbers.

Data set [1] concerns the target T1, hPIV-N51 (139-189) (Human parainfluenza 3 virus, UniProt P06828).
T1 construct: hPIV-N51 (139-189)
Briefly: SPR affinity to hPIV-N51 coupled on CM5 chip. Format: binding. How it is done:
(§1) hMPV and hPIV were two viruses having a typical Class I fusion protein-F protein. An F protein precursor F0 was cracked into F1 and F2 subunits. […] When the compound flowed through a chip surface, changes in an SPR signal were monitored in real time, binding and dissociation processes were recorded, and a binding rate constant (ka) and a dissociation rate constant (kd) were further obtained through kinetic analysis, thereby calculating an equilibrium dissociation constant (KD=kd/ka).
(§2) A CM5 chip with a catalog number 29149603, an amino coupling reagent kit with a catalog number BR100050, HBS-EP+Buffer (10×), sodium acetate (pH 4.0), and a 10 mM glycine-HCl buffer (pH 2.0) were all purchased from GE Health.
(§3) CM5 chip coupling: Channels 2 and 4 of the CM5 chip were activated for 7 min by using a freshly-prepared mixture of 50 mM Hydroxy succinimide (NHS) and 200 mM 1-(3-Dimethylaminopropyl)-3-ethylcarbodiimide (EDC) according to 1:1; and then, hMPV-N46 or hPIV-N51 was diluted and dissolved with sodium acetate with 4.0 pH to a concentration of 30 μM, with a flow rate of 10 μl/min and time of 600 s. An experimental buffer was HBS-EP+buffer (1×). Finally, the chip was blocked with 1 M ethanolamine. The instrument was set to a temperature of 25° C.
(§4) Affinity detection: the buffer used in the experiment was HBS-EP+buffer (1×), and a multi-cycle dynamic mode was used. Channels 1 and 3 of the chip served as blank reference channels; polypeptides to be detected sequentially flowed through Channels 2 and 4 at concentrations of 0 μM, 0.04 µM, 0.12 µM, 0.37 μM, 1.11 µM, 3.33 µM, 10 µM, and 30 μM; the flow rate was 30 μl/min, binding was performed for 180 s, and dissociation was performed for 120 s. Finally, the chip was regenerated by injecting 10 mM glycine (pH 2.0). The instrument was set to a temperature of 25° C.

Data set [2] concerns RSV A long virus strain. Format: cell-based. The conditions noted are these: RSV A long virus strain, HEp-2 cells, plaque reduction, 1 day; read-out: IC50. The procedure, abridged:
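HEp-2 cells (30000/well) infected with 100 PFU virus premixed 1 h with compound (8 concentrations, duplicate); after 2 h adsorption, cultured 1 day at 37 °C under 0.8% CMC overlay with compound. Plaques immunostained (RSV antibody, TrueBlue) and counted; IC50 and CC50 by non-linear fitting of % inhibition versus virus and cell controls.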

The nature of data set [3]: Cytotoxicity test in HEp-2 cells (CCK8 cell viability). Format: cell-based. The conditions noted are these: human; HEp-2 cells, CCK8, 1 day; read-out: CC50. A digest of the protocol:
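HEp-2 cells seeded at 30,000/well, cultured overnight at 37° C./5% CO2, then exposed to diluted compound for 1 day in 0.5% DMSO. Viability read by CCK8, normalised to untreated-cell and medium-only controls; CC50 from four-parameter variable-slope fit.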

Data set [4] has as its target T2, hMPV-N46 (127-172) (Human metapneumovirus, UniProt Q6WB98).
T2 construct: hMPV-N46 (127-172)
In words: SPR affinity to hMPV-N46 coupled on CM5 chip. Format: binding. How it is done:
as §1, §2, §3, §4

T1 sequence (P06828 139-189): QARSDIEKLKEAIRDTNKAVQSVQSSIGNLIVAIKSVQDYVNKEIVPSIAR
T2 sequence (Q6WB98 127-172): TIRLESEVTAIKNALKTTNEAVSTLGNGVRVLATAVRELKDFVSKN

`CC[C@H](C)[C@H](NC(=O)[C@H](CO)NC(=O)[C@H](C)NC(=O)[C@H](CC(=O)O)NC(=O)[C@H](Cc1ccccc1)NC(C)=O)C(=O)N[C@@H](CCC(=O)O)C(=O)N[C@@H](CCC(=O)O)C(=O)N[C@H](C(=O)N[C@@H](CC(N)=O)C(=O)N[C@@H](CCCNC(=N)N)C(=O)N[C@@H](CCCNC(=N)N)C(=O)N[C@H](C(=O)N[C@@H](CCC(=O)O)C(=O)N[C@@H](CCC(=O)O)C(=O)N[C@@H](CO)C(=O)N[C@@H](CC(C)C)C(=O)N[C@@H](CCCNC(=N)N)C(=O)N[C@@H](CCCNC(=N)N)C(=O)N[C@H](C(=O)N[C@@H](CCC(=O)O)C(=O)N[C@@H](CCC(=O)O)C(=O)N[C@@H](CO)C(=O)N[C@@H](CC(=O)O)C(=O)N[C@@H](CCCNC(=N)N)C(=O)N[C@@H](CCCNC(=N)N)C(=O)N[C@@H](CC(C)C)C(=O)N[C@@H](CCC(=O)O)C(=O)N[C@@H](CCC(=O)O)C(=O)N[C@H](C(=O)N[C@@H](CC(N)=O)C(=O)N[C@@H](C)C(=O)N[C@@H](CCC(=O)O)C(=O)N[C@@H](C)C(=O)N[C@@H](C)C(=O)N[C@@H](C)C(=O)N[C@@H](CCCCN)C(=O)N[C@@H](CCCCNC(=O)CCC(=O)O[C@H]1CC[C@@]2(C)C(=CC[C@H]3[C@@H]4CC[C@H]([C@H](C)CCCC(C)C)[C@@]4(C)CC[C@@H]32)C1)C(N)=O)C(C)C)[C@@H](C)CC)[C@@H](C)CC)C(C)C` [Compound 42] (Ac-FDASIEEVNRRIEESLRRIEESDRRLEEVNAEAAAKK(Succinyl(4-O-cholesteryl))-NH2): the figures for the equilibrium dissociation constant (Kd) in data set [1] and in data set [4] were 0.485 µM and 0.533 µM, respectively. The IC50 in data set [2] came to 0.0118 µM. Besides, in data set [3], the CC50 at 1 day is 3.71 µM.
For `CC[C@H](C)[C@H](NC(=O)[C@H](CO)NC(=O)[C@H](C)NC(=O)[C@H](CC(=O)O)NC(=O)[C@H](Cc1ccccc1)NC(=O)[C@H](CCC(=O)O)NC(=O)[C@H](CC(=O)O)NC(=O)[C@H](Cc1c[nH]c2ccccc12)NC(C)=O)C(=O)N[C@@H](CCC(=O)O)C(=O)N[C@@H](CCC(=O)O)C(=O)N[C@H](C(=O)N[C@@H](CC(N)=O)C(=O)N[C@@H](CCCNC(=N)N)C(=O)N[C@@H](CCCNC(=N)N)C(=O)N[C@H](C(=O)N[C@@H](CCC(=O)O)C(=O)N[C@@H](CCC(=O)O)C(=O)N[C@@H](CO)C(=O)N[C@@H](CC(C)C)C(=O)N[C@@H](CCCNC(=N)N)C(=O)N[C@@H](CCCNC(=N)N)C(=O)N[C@H](C(=O)N[C@@H](CCC(=O)O)C(=O)N[C@@H](CCC(=O)O)C(=O)N[C@@H](CO)C(=O)N[C@@H](CC(=O)O)C(=O)N[C@@H](CCCNC(=N)N)C(=O)N[C@@H](CCCNC(=N)N)C(=O)N[C@@H](CC(C)C)C(=O)N[C@@H](CCC(=O)O)C(=O)N[C@@H](CCC(=O)O)C(=O)N[C@H](C(=O)N[C@@H](CCC(=O)O)C(=O)N[C@@H](C)C(=O)N[C@@H](C)C(=O)N[C@@H](C)C(=O)N[C@@H](CCCCN)C(=O)N[C@@H](CCCCNC(=O)CCC(=O)O[C@H]1CC[C@@]2(C)C(=CC[C@H]3[C@@H]4CC[C@H]([C@H](C)CCCC(C)C)[C@@]4(C)CC[C@@H]32)C1)C(N)=O)C(C)C)[C@@H](C)CC)[C@@H](C)CC)C(C)C` [Compound 43] (Ac-WDEFDASIEEVNRRIEESLRRIEESDRRLEEVEAAAKK(Succinyl(4-O-cholesteryl))-NH2), the Kd in data set [1] was 5.72 µM; in data set [4] it was 71.4 µM. Further, in data set [2], the IC50 turned out to be 0.0183 µM. Besides, in data set [3], the CC50 at 1 day stood at 12.2 µM.
Consider `CC[C@H](C)[C@H](NC(=O)[C@H](CCCCN)NC(=O)[C@H](CCCCN)NC(=O)[C@H](CC(C)C)NC(=O)[C@H](CO)NC(=O)[C@H](CCC(=O)O)NC(=O)[C@H](CCC(=O)O)NC(=O)[C@@H](NC(=O)[C@H](CCCCN)NC(=O)[C@H](CCCCN)NC(=O)[C@H](CC(N)=O)NC(=O)[C@@H](NC(=O)[C@H](CCC(=O)O)NC(=O)[C@H](CCC(=O)O)NC(=O)[C@@H](NC(=O)[C@H](CCCCN)NC(=O)[C@H](CCCCN)NC(=O)[C@H](CC(=O)O)NC(=O)[C@H](Cc1ccccc1)NC(=O)[C@H](CCC(=O)O)NC(=O)[C@H](CC(=O)O)NC(=O)[C@H](Cc1c[nH]c2ccccc12)NC(C)=O)[C@@H](C)CC)C(C)C)[C@@H](C)CC)C(=O)N[C@@H](CCC(=O)O)C(=O)N[C@@H](CCC(=O)O)C(=O)N[C@@H](CO)C(=O)N[C@@H](CC(=O)O)C(=O)N[C@@H](CCCCN)C(=O)N[C@@H](CCCCN)C(=O)N[C@@H](CC(C)C)C(=O)N[C@@H](Cc1c[nH]cn1)C(=O)N[C@@H](CC(N)=O)C(=O)N[C@H](C(=O)N[C@@H](CCC(=O)O)C(=O)N[C@@H](C)C(=O)N[C@@H](C)C(=O)N[C@@H](C)C(=O)N[C@@H](CCCCN)C(=O)N[C@@H](CCCCNC(=O)CCC(=O)O[C@H]1CC[C@@]2(C)C(=CC[C@H]3[C@@H]4CC[C@H]([C@H](C)CCCC(C)C)[C@@]4(C)CC[C@@H]32)C1)C(N)=O)C(C)C` [Compound 44] (Ac-WDEFDKKIEEVNKKIEESLKKIEESDKKLHNVEAAAKK(Succinyl(4-O-cholesteryl))-NH2), for which the Kd is 6.86 µM in data set [1] and 0.149 µM in data set [4]. In data set [2], the half-inhibitory concentration (IC50) came to 0.0124 µM. The CC50 at 1 day in data set [3] amounted to 26.5 µM.
On the same counts, the results for `CC[C@H](C)[C@H](NC(=O)[C@H](CO)NC(=O)[C@H](C)NC(=O)[C@H](CC(=O)O)NC(=O)[C@H](Cc1ccccc1)NC(=O)[C@H](CCC(=O)O)NC(=O)[C@H](CC(=O)O)NC(=O)[C@H](Cc1c[nH]c2ccccc12)NC(C)=O)C(=O)N[C@@H](CO)C(=O)N[C@@H](CCC(N)=O)C(=O)N[C@H](C(=O)N[C@@H](CC(N)=O)C(=O)N[C@@H](CCC(=O)O)C(=O)N[C@@H](CCCCN)C(=O)N[C@H](C(=O)N[C@@H](CC(N)=O)C(=O)N[C@@H](CCC(N)=O)C(=O)N[C@@H](CO)C(=O)N[C@@H](CC(C)C)C(=O)N[C@@H](CCC(=O)O)C(=O)N[C@@H](CCC(=O)O)C(=O)N[C@H](C(=O)N[C@@H](CCCNC(=N)N)C(=O)N[C@@H](CCCCN)C(=O)N[C@@H](CO)C(=O)N[C@@H](CC(=O)O)C(=O)N[C@@H](CCC(=O)O)C(=O)N[C@@H](CC(C)C)C(=O)N[C@@H](CC(C)C)C(=O)N[C@@H](Cc1c[nH]cn1)C(=O)N[C@@H](CC(N)=O)C(=O)N[C@@H](CCC(=O)O)C(=O)N[C@@H](C)C(=O)N[C@@H](C)C(=O)N[C@@H](C)C(=O)N[C@@H](CCCCN)C(=O)N[C@@H](CCCCNC(=O)CCC(=O)O[C@H]1CC[C@@]2(C)C(=CC[C@H]3[C@@H]4CC[C@H]([C@H](C)CCCC(C)C)[C@@]4(C)CC[C@@H]32)C1)C(N)=O)[C@@H](C)CC)[C@@H](C)CC)C(C)C` [Compound 45] (Ac-WDEFDASISQVNEKINQSLEEIRKSDELLHNEAAAKK(Succinyl(4-O-cholesteryl))-NH2) are 179 µM, 70.6 µM, 0.0122 µM and 9.94 µM.
Take `CC[C@H](C)[C@H](NC(=O)[C@H](CCCCN)NC(=O)[C@H](CCCCN)NC(=O)[C@H](CC(C)C)NC(=O)[C@H](CO)NC(=O)[C@H](CCC(N)=O)NC(=O)[C@H](CC(N)=O)NC(=O)[C@@H](NC(=O)[C@H](CCCCN)NC(=O)[C@H](CCCCN)NC(=O)[C@H](CC(=O)O)NC(=O)[C@H](Cc1ccccc1)NC(=O)[C@H](CCC(=O)O)NC(=O)[C@@H](NC(=O)[C@H](CCCCN)NC(=O)[C@H](CCCCN)NC(=O)[C@H](CC(N)=O)NC(=O)[C@@H](NC(=O)[C@H](CC(C)C)NC(=O)[C@H](CCC(=O)O)NC(=O)[C@H](CC(=O)O)NC(=O)[C@H](CO)NC(C)=O)C(C)C)[C@@H](C)CC)[C@@H](C)CC)C(=O)N[C@@H](CCC(=O)O)C(=O)N[C@@H](CCC(=O)O)C(=O)N[C@@H](CO)C(=O)N[C@@H](CC(=O)O)C(=O)N[C@@H](CCCCN)C(=O)N[C@@H](CCCCN)C(=O)N[C@@H](CCCCN)C(=O)N[C@@H](CC(C)C)C(=O)N[C@@H](CCC(=O)O)C(=O)N[C@@H](C)C(=O)N[C@@H](C)C(=O)N[C@@H](C)C(=O)N[C@@H](CCCCN)C(=O)N[C@@H](CCCCN)C(N)=O` [Compound 51] (Ac-SDELVNKKIEFDKKINQSLKKIEESDKKKLEAAAKK-NH2): the values for the dissociation constant (Kd) in data set [1] and in data set [4] were 0.0514 µM and 0.0144 µM, respectively. Further, in data set [2], the concentration for half-maximal inhibition (IC50) is 0.0099 µM. Further, in data set [3], the CC50 at 1 day is 3.2 µM.
As for “Ac-FDEEISQVNEKINQSLAFIRKSDELLHNVNAGKSTTEAAAKK(Succinyl(4-O-cholesteryl))-NH2 [Compound 26]”, the values for the Kd in data set [1] and in data set [4] were 2.58 µM and 2.15 µM, respectively. In data set [2], the IC50 was 0.0128 µM. For the same compound, the cytotoxic concentration (CC50) at 1 day in data set [3] is more than 100 µM.
